# From patent US6066628A, “Non-iron metalloporphyrins and methods of use” (Emory University, priority 1998, dated 2000)
# Where two headings read alike, the source gives them in different places.
# Experiments:
# Y. enterocolitica = assay: microbe, parasite or virus in culture; format: cell-based
# Staphylococcus xylolus = assay: Disc diffusion sensitivity test; format: cell-based; details: 50 μg disc
# M tuber. H37Pa = assay: Disc diffusion sensitivity test; format: cell-based, Mycobacterium tuberculosis; details: disc ~50 μg MP
# P. mirabills = assay: Disc diffusion sensitivity test; format: cell-based, Proteus mirabilis
# K. pneumoniae = assay: Disc diffusion sensitivity test; format: cell-based, Klebsiella pneumoniae
# S. pyogenes A = assay: Disc diffusion sensitivity test; format: cell-based, Streptococcus pyogenes; details: disc ~50 μg MP
# M. bovis = format: cell-based, Mycobacterium bovis; details: disc ~50 μg MP
# B. subtilis = assay: Disc diffusion sensitivity test; format: cell-based, Bacillus subtilis; details: B. subtilis; disc ~50 μg MP
# [1] = system: methicillin resistant S. aureus IR2419; format: cell-based, Staphylococcus aureus; details: 1 μg/ml, below the MIC value
# E. coli = format: cell-based, Escherichia coli
# S. marcescens = assay: Disc diffusion sensitivity test; format: cell-based, Serratia marcescens
# S. aureus = format: cell-based, Staphylococcus aureus
# M. smegmatis [2] = system: M. smegmatis
# M. smegmatis [3] = assay: Disc diffusion sensitivity test; format: cell-based, Mycobacterium smegmatis; details: disc ~50 μg MP
# M. smegmatis [4] = format: cell-based, Mycobacterium smegmatis
compound,measurement,setting,value
"C=CC1=C(C)C2=Cc3c(C=C)c(C)c4[n]3[Ga][n]3c(c(C)c(CCC(=O)O)c3=CC3=NC(=C4)C(C)=C3CCC(=O)O)=CC1=N2 [Ga-PPIX, Gallium (III) protoporphyrin IX chloride]",Minimal inhibitory concentration (MIC),Y. enterocolitica,0.4
same,antibacterial activity,Y. enterocolitica,inhibitory
same,sensitivity of hemR mutant,Y. enterocolitica,resistant to relatively high concentrations
same,"sensitivity of hemT, hemU, hemV mutants",Y. enterocolitica,fully sensitive
same,MIC,Y. enterocolitica; in µg/mL,0.4
same,sensitive strains / strains tested (inhibition zones larger or equal 20 mm),Staphylococcus xylolus,1/1
same,diameter (mm) of the inhibition zone,M tuber. H37Pa,36 mm
same,diameter (mm) of the inhibition zone,"P. mirabills; P. mirabilis, disc ~50 μg MP",21 mm
same,sensitive strains / strains tested (inhibition zones larger or equal 20 mm),"P. mirabills; Proteus mirabilis, 50 μg disc",2/2
same,diameter (mm) of the inhibition zone,"K. pneumoniae; K. pneumoniae, disc ~50 μg MP",22 mm
same,sensitive strains / strains tested (inhibition zones larger or equal 20 mm),"K. pneumoniae; Klebsiella pneumoniae, 50 μg disc",9/13
same,diameter (mm) of the inhibition zone,S. pyogenes A,-
same,diameter (mm) of the inhibition zone,M. bovis,35 mm
same,diameter (mm) of the inhibition zone,B. subtilis,24 mm
same,growth in presence of Ga-PPIX,[1],inhibited growth of S. aureus in the first 20 hours of growth
same,MIC,E. coli; E. coli DH-5 alpha hemA (Table 6),> 10 mg/L
same,sensitivity,"E. coli; E. coli K-12 (hemPR+) wild type and hemA mutant, with delta-aminolevulinic acid",fully sensitive
same,TonB dependence of inhibition,E. coli; E. coli TonB mutant overexpressing HemR,TonB activity is necessary
same,MIC,E. coli; E. coli dh-5 alpha hemA(hemR+) (Table 6),< 0.1 mg/L
same,MIC Ga-PPIX,"E. coli; EC06 (MC1061, ΔccmABCDEFGH), NB",> 20 mg/L
same,MIC Ga-PPIX,"E. coli; EC06 (MC1061, ΔccmABCDEFGH), NBD[50 μM]",> 20 mg/L
same,MIC Ga-PPIX,"E. coli; GO103 (GR70N, ΔcydAB), NB",10 mg/L
same,MIC Ga-PPIX,"E. coli; GO103 (GR70N, ΔcydAB), NBD[50 μM]",6.4 mg/L
same,MIC Ga-PPIX,"E. coli; GP104 (GR70N, ΔcyoABCDE), NB",10 mg/L
same,MIC Ga-PPIX,"E. coli; GP104 (GR70N, ΔcyoABCDE), NBD[50 μM]",10 mg/L
same,MIC Ga-PPIX,"E. coli; GR70N w.t., NB",10 mg/L
same,MIC Ga-PPIX,"E. coli; GR70N w.t., NBD[50 μM]",10 mg/L
same,MIC Ga-PPIX,"E. coli; IR2885 (GO104 [phemR+]), NB",< 0.2 mg/L
same,MIC Ga-PPIX,"E. coli; IR2885 (GO104 [phemR+]), NBD[50 μM]",< 0.02 mg/L
same,MIC Ga-PPIX,"E. coli; IR2897 (GR70N [phemR+]), NB",> 10 mg/L
same,MIC Ga-PPIX,"E. coli; IR2897 (GR70N [phemR+]), NBD[50 μM]",< 0.1 mg/L
same,MIC Ga-PPIX,"E. coli; IR2898 (GO103 [phemR+]), NB",< 0.2 mg/L
same,MIC Ga-PPIX,"E. coli; IR2898 (GO103 [phemR+]), NBD[50 μM]",< 0.02 mg/L
same,MIC Ga-PPIX,"E. coli; IR2899 (MWC215 [phemR+]), NB",> 10 mg/L
same,MIC Ga-PPIX,"E. coli; IR2899 (MWC215 [phemR+]), NBD[50 μM]",< 0.1 mg/L
same,MIC Ga-PPIX,"E. coli; IR2976 (EC06 [phemR+]), NB",> 30 mg/L
same,MIC Ga-PPIX,"E. coli; IR2976 (EC06 [phemR+]), NBD[50 μM]",0.5 mg/L
same,MIC Ga-PPIX,"E. coli; MWC215 (GR70N, ndh), NB",10 mg/L
same,MIC Ga-PPIX,"E. coli; MWC215 (GR70N, ndh), NBD[50 μM]",10 mg/L
same,higher MIC under iron-sufficient growth conditions,E. coli; all other mutants,50 fold
same,sensitivity without an iron chelator,E. coli; cytochrome cd and cyo single mutants,still sensitive
same,sensitivity concentration of HemR-plasmid strains,E. coli; slight iron restriction (0.05 mM dipyridyl),less than 0.5 μg/ml
same,diameter (mm) of the inhibition zone,"S. marcescens; S. marcescens, disc ~50 μg MP",23 mm
same,sensitive strains / strains tested (inhibition zones larger or equal 20 mm),"S. marcescens; Serratia marcescens, 50 μg disc",2/3
same,MIC in Muller-Hinton broth versus NB broth,S. aureus; Muller-Hinton broth,did not differ significantly
same,lower MIC in low iron media,S. aureus; NBD with 0.1 mM dipyridyl,2 fold
same,MIC,S. aureus; S. aureus 8325-4 (Table 4),< 0.1 µg/mL
same,MIC,"S. aureus; S. aureus 8325-4 (Table 6), in µg/mL",1-2
same,MIC,"S. aureus; S. aureus 8325-4, 20 to 24 hours (Table 5)",1 to 2 µg/mL
same,MIC,"S. aureus; S. aureus IR2419, dark (Table 10)",1.6 µg/mL
same,Minimal inhibitory concentration (MIC),"S. aureus; methicillin-resistant S. aureus IR219, Nutrient broth (Table 2)",1.6 mg/L
same,spontaneous resistance,M. smegmatis [2],did not produce spontaneous resistant mutants
same,diameter (mm) of the inhibition zone,M. smegmatis [3],25 mm
same,lower MIC in low iron media,M. smegmatis [4]; LB+0.2 mM Desferal,2 fold
same,antibacterial activity,M. smegmatis [4]; M. smegmatis,inhibitory
same,MIC,M. smegmatis [4]; M. smegmatis LR222 (Table 4),0.5 mg/L
same,Minimal inhibitory concentration (MIC),"M. smegmatis [4]; M. smegmatis LR222, LB + Tween 80 (Table 2)",0.4 mg/L
same,MIC,"M. smegmatis [4]; M. smegmatis LR222, dark (Table 10)",0.4 mg/L
